This is an account of results in patent US20110275583A1, “Synergistic active compound combinations” (priority 2010, published 2011).

Read-outs that look alike come from different tables or passages of the source.

Common to all, as to type: in vivo
In experiment [1] the test system is armyworm (Spodoptera frugiperda). The experiment can be described thus: Spodoptera frugiperda larvae test (sprayed cabbage leaves). As to conditions: single active compound. The source says: (§1) The expected action for a given combination of two active compounds can be calculated as follows, using the formula of S. R. Colby, Weeds 15 (1967), 20-22: • If • X is the kill rate, expressed as % of the untreated control, when employing active compound A at an application rate of m g/ha or in a concentration of in ppm, • Y is the kill rate, expressed as % of the untreated control, when employing active compound B at an application rate of n g/ha or in a concentration of n ppm and • E is the kill rate, expressed as % of the untreated control, when employing active compounds A and B at application rates of m and n g/ha or in a concentration of m and n ppm, • then
(§2) If the actual kill rate exceeds the calculated value, the action of the combination is superadditive, i.e. a synergistic effect is present. In this case, the actually observed kill rate must exceed the value calculated using the above formula for the expected kill rate (E).
(§3) Solvent: 78 parts by weight of acetone • • 1.5 parts by weight of dimethylformamide
(§4) Emulsifier: 0.5 part by weight of alkylaryl polyglycol ether
(§5) To produce a suitable preparation of active compound, 1 part by weight of active compound is mixed with the stated amounts of solvent and emulsifier, and the concentrate is diluted with emulsifier-containing water to the desired concentration.
Cabbage leaves (Brassica oleracea) are treated by being sprayed with the preparation of active compound of the desired concentration and are populated with the armyworm (Spodoptera frugiperda) while the leaves are still moist.
After the desired period of time, the kill in % is determined. 100% means that all caterpillars have been killed; 0% means that none of the caterpillars have been killed. The kill rates determined are entered, into Colby's formula.

For experiment [2], the system named is greenhouse red spider mite (Tetranychus urticae). The experiment can be described thus: Tetranychus test, OP-resistant/spray treatment (bean leaf discs). The settings on record: single active compound.
Source text: as §1, §2, §3, §4, §5
Discs of bean leaves (Phaseolus vulgaris) which are infested by all stages of the greenhouse red spider mite (Tetranychus urticae) are sprayed with an active compound preparation of the desired concentration.
After the desired period of time, the effect in % is determined. 100% means that all of the spider mites have been killed; 0% means that none of the spider mites have been killed.

Experiment [3] deals with larvae of the mustard beetle (Phaedon cochleariae). The experiment can be described thus: Phaedon cochleariae larvae test (sprayed cabbage leaves). As to conditions: single active compound.
Source text: as §1, §2, §3, §4, §5
Cabbage leaves (Brassica oleracea) are treated by spraying with the active compound preparation of the desired concentration and populated with larvae of the mustard beetle (Phaedon cochleariae) while the leaves are still moist.
After the desired period of time, the kill in % is determined. 100% means that all beetle larvae have been killed; 0% means that none of the beetle larvae have been killed. The kill rates determined are entered into Colby's formula.

The subject of experiment [4] is green peach aphid (Myzus persicae). The experiment can be described thus: Myzus persicae test (spray treatment of infested cabbage leaves).
Source text: as §1, §2, §3, §4, §5
Cabbage leaves (Brassica oleracea) which are heavily infested by the green peach aphid (Myzus persicae) are treated by spraying with the active compound preparation of the desired concentration.
After the desired period of time, the kill in % is determined. 100% means that all of the aphids have been killed; 0% means that none of the aphids have been killed. The kill rates determined are entered into Colby's formula.

Setting [5] is: Spodoptera frugiperda, 144 h, 0.16 g/ha, 6 d, read-out: Kill in % after 6 d.
Where [6] appears, read: Spodoptera frugiperda, 144 h, 6 d, read-out: Kill in % after 6 d.
[7] abbreviates: Tetranychus urticae, foliar, 144 h, 6 d, read-out: Kill in % after 6 d.
Where [8] appears, read: Phaedon cochleariae, 144 h, 0.8 g/ha, 6 d, read-out: Kill in % after 6 d.
Where [9] appears, read: Myzus persicae, 24 h, after 1 d, read-out: Kill in % after 1d.
Where [10] appears, read: Spodoptera frugiperda, 48 h, 2 d, read-out: Kill in % after 2 d.
Setting [11] is: Spodoptera frugiperda, 144 h, 4 g/ha, 6 d, read-out: Kill in % after 6 d.
Where [12] appears, read: Phaedon cochleariae, 48 h, 0.8 g/ha, 2 d, read-out: Kill in % after 2 d.
[13] abbreviates: Myzus persicae, 24 h, 0.8 g/ha, after 1 d, read-out: Kill in % after 1d.

As for emamectin benzoate, the “Kill in % after 2 d” value in experiment [1] (0.16 g/ha, 2 d) amounted to 0%; in experiment [2] (0.032 g/ha, 2 d) it was 0%; in experiment [3] (0.8 g/ha, 2 d) it was 50%. Besides, the “Kill in % after 6 d” value in experiment [4] (0.16 g/ha, single active compound, 6 d) is on record as 0%. In addition, the “Kill in % after 1d” value in experiment [4] (0.8 g/ha, after 1 d) is on record as 0%.
For the compound `CCOP(=S)(OCC)Oc1nc(Cl)c(Cl)cc1Cl` [chlorpyrifos], the “Kill in % after 6 d” value in experiment [1] (4 g/ha, 6 d) is reported as 0%; in experiment [2] (100 g/ha, 6 d) it was 0%.
`CC1(C)C(/C=C(\Cl)C(F)(F)F)C1C(=O)OC(C#N)c1cccc(Oc2ccccc2)c1` [L-cyhalothrin, lambda-cyhalothrin]: the pest or weed control at 0.16 g/ha in experiment [1] (setting [5]) amounted to 0%. Also, the pest or weed control at 0.8 g/ha in experiment [1] (setting [6]) amounted to 50%; in experiment [2] (Tetranychus urticae, foliar, 144 h, 0.8 g/ha, 6 d, read-out: Kill in % after 6 d) it was 0%; in experiment [3] (setting [8]) it was 33%. For the same compound, the pest or weed control at 4 g/ha in experiment [2] (setting [7]) was 80%. In addition, in experiment [4] (setting [9]), the pest or weed control at 0.032 g/ha turned out to be 0%.
On to `COC(=O)N(C(=O)N1COC2(C(=O)OC)Cc3cc(Cl)ccc3C2=N1)c1ccc(OC(F)(F)F)cc1` (centres unmarked) [indoxacarb], for which the pest or weed control at 100 g/ha in experiment [1] (setting [10]) came to 50%. For the same compound, in experiment [3] (setting [8]), the pest or weed control at 0.8 g/ha was found to be 0%.
For the compound `CC1(C)C(C=C(Cl)Cl)C1C(=O)OC(C#N)c1ccc(F)c(Oc2ccccc2)c1` (stereo not drawn) [β-cyfluthrin, beta-cyfluthrin], the pest or weed control at 0.16 g/ha in experiment [1] (setting [5]) amounted to 0%. Besides, in experiment [2] (setting [7]), the pest or weed control at 4 g/ha is 0%. Further, the pest or weed control at 0.8 g/ha in experiment [3] (setting [8]) amounted to 33%. Besides, the pest or weed control at 0.032 g/ha in experiment [4] (setting [9]) was found to be 0%.
Take `CNC(=O)O/N=C/C(C)(C)SC` [aldicarb]: the pest or weed control at 100 g/ha turned out to be 0% in experiment [1] (setting [6]) and 0% in experiment [2] (Tetranychus urticae, foliar, 48 h, 100 g/ha, 2 d, read-out: Kill in % after 2 d).
Regarding `FC(F)(F)c1ccc(OCCCOc2c(Cl)cc(OCC=C(Cl)Cl)cc2Cl)nc1` [pyridalyl], in experiment [1] (setting [11]), the pest or weed control at 4 g/ha came out at 17%. For the same compound, the pest or weed control at 20 g/ha in experiment [2] (setting [7]) turned out to be 10%. Further, in experiment [4] (Myzus persicae, 144 h, 0.8 g/ha, single active compound, 6 d, read-out: Kill in % after 6 d), the pest or weed control at 0.8 g/ha stood at 0%.
For the compound `CNC(=O)c1cc(Cl)cc(C)c1NC(=O)c1cc(Br)nn1-c1ncccc1Cl` [chloranthraniliprole, chlorantraniliprole], in experiment [1] (Spodoptera frugiperda, 48 h, 4 g/ha, 2 d, read-out: Kill in % after 2 d), the pest or weed control at 4 g/ha was 67%. In addition, the pest or weed control at 0.8 g/ha in experiment [3] (setting [12]) amounted to 67%; in experiment [4] (setting [13]), 0%.
On to `CNC(=O)c1cc(C#N)cc(C)c1NC(=O)c1cc(Br)nn1-c1ncccc1Cl` [Cyazypyr, cyantraniliprole], for which the pest or weed control at 0.8 g/ha stood at 50% in experiment [1] (setting [6]), 50% in experiment [3] (setting [12]) and 0% in experiment [4] (setting [13]). For the same compound, the pest or weed control at 20 g/ha in experiment [2] (Tetranychus urticae, foliar, 48 h, 2 d, read-out: Kill in % after 2 d) came out at 0%. Further, the pest or weed control at 0.16 g/ha in experiment [3] (Phaedon cochleariae, 144 h, 0.16 g/ha, 6 d, read-out: Kill in % after 6 d) turned out to be 33%.
On to `CC1(C)[C@H](C(=O)O[C@H](C#N)c2cccc(Oc3ccccc3)c2)[C@@H]1C=C(Br)Br` [deltamethrin], for which the pest or weed control at 0.032 g/ha was 33% in experiment [1] (Spodoptera frugiperda, 144 h, 0.032 g/ha, 6 d, read-out: Kill in % after 6 d) and 70% in experiment [4] (setting [9]). The pest or weed control at 0.8 g/ha in experiment [3] (setting [12]) worked out at 67%.
As for `CNC(=O)Oc1cc(C)c(SC)c(C)c1` [methiocarb], the pest or weed control at 100 g/ha in experiment [1] (setting [10]) came to 0%; in experiment [3] (Phaedon cochleariae, 48 h, 2 d, read-out: Kill in % after 2 d), 50%.
For the compound `CC1(C)C(C=C(Cl)Cl)C1C(=O)OC(C#N)c1cccc(Oc2ccccc2)c1` (stereo not drawn) [alpha-cypermethrin], the pest or weed control at 0.8 g/ha in experiment [1] (setting [6]) was 33%. Besides, in experiment [3] (Phaedon cochleariae, 144 h, 4 g/ha, 6 d, read-out: Kill in % after 6 d), the pest or weed control at 4 g/ha amounted to 67%. The pest or weed control at 0.16 g/ha in experiment [4] (Myzus persicae, 24 h, 0.16 g/ha, after 1 d, read-out: Kill in % after 1d) came out at 0%.
Turning to `N#Cc1ccc(CC(=NNC(=O)Nc2ccc(OC(F)(F)F)cc2)c2cccc(C(F)(F)F)c2)cc1` (mixture of isomers) [metaflumizone], the pest or weed control at 100 g/ha in experiment [1] (setting [10]) turned out to be 0%. Moreover, in experiment [4] (Myzus persicae, 144 h, 4 g/ha, single active compound, 6 d, read-out: Kill in % after 6 d), the pest or weed control at 4 g/ha came to 0%.
Regarding `O=C(NC(=O)c1c(F)cccc1F)Nc1cc(Cl)c(OC(F)(F)C(F)C(F)(F)F)cc1Cl` (centres unmarked) [lufenuron], in experiment [1] (setting [11]), the pest or weed control at 4 g/ha was 0%. Besides, in experiment [3] (Phaedon cochleariae, 144 h, 6 d, read-out: Kill in % after 6 d), the pest or weed control at 100 g/ha was 33%.
As to `N#Cc1nn(-c2c(Cl)cc(C(F)(F)F)cc2Cl)c(N)c1[S+]([O-])C(F)(F)F` (centres unmarked) [fipronil], in experiment [1] (setting [11]), the pest or weed control at 4 g/ha came out at 0%. The pest or weed control at 100 g/ha in experiment [2] (Tetranychus urticae, foliar, 144 h, 100 g/ha, 6 d, read-out: Kill in % after 6 d) stood at 0%. The pest or weed control at 0.8 g/ha in experiment [3] (setting [12]) was 50%.
